In US9335320B2, “Combinations of phosphoinositide 3-kinase inhibitor compounds and chemotherapeutic agents for the treatment of hematopoietic malignancies” (Genentech, Inc., priority 2009, dated 2016):
Where two headings read alike, the source gives them in different places.

What was measured:
SUDHL6 = experiment: CellTiter-Glo cell proliferation assay, SUDHL6; format: cell-based; details: Homo sapiens, SU-DHL-6; SUDHL6 (DLBCL), single agent, Table 2
RI1 = experiment: CellTiter-Glo cell proliferation assay, RI1; format: cell-based; details: Ri-1; RI1 (B-NHL), single agent, Table 2
SUDHL5 = experiment: CellTiter-Glo cell proliferation assay, SUDHL5; format: cell-based; details: Homo sapiens, SU-DHL-5; SUDHL5 (DLBCL), single agent, Table 2
MC116 = experiment: CellTiter-Glo cell proliferation assay, MC116; format: cell-based; details: Homo sapiens; MC116 (NHL), single agent, Table 2
WSUNHL = experiment: CellTiter-Glo cell proliferation assay, WSUNHL; format: cell-based; details: Homo sapiens, WSU-NHL, single agent, Table 2
Rec1 = experiment: CellTiter-Glo cell proliferation assay, Rec1; format: cell-based; details: Homo sapiens; Rec1 (B-NHL), single agent, Table 2
Granta519 = experiment: CellTiter-Glo cell proliferation assay, Granta519; format: cell-based; details: Homo sapiens, Granta-519; Granta519 (MCL), single agent, Table 2
Farage = experiment: CellTiter-Glo cell proliferation assay, Farage; format: cell-based; details: Farage (DLBCL), single agent, Table 2
OciLy19 = experiment: CellTiter-Glo cell proliferation assay, OciLy19; format: cell-based; details: Homo sapiens, OCI-LY19; OciLy19 (DLBCL), single agent, Table 2
Jeko1 = experiment: CellTiter-Glo cell proliferation assay, Jeko1; format: cell-based; details: Homo sapiens, JeKo-1; Jeko1 (MCL), single agent, Table 2
SUDHL4 = experiment: CellTiter-Glo cell proliferation assay, SUDHL4; format: cell-based; details: Homo sapiens, SU-DHL-4; SUDHL4 (DLBCL), single agent, Table 2
HT = experiment: CellTiter-Glo cell proliferation assay, HT; format: cell-based; details: Homo sapiens; HT (DLBCL), single agent, Table 2
DB = experiment: CellTiter-Glo cell proliferation assay, DB; format: cell-based; details: Homo sapiens; DB (DLBCL), single agent, Table 2
Ramos = experiment: CellTiter-Glo cell proliferation assay, Ramos; format: cell-based; details: Homo sapiens; Ramos (Burkit's), single agent, Table 2
SC1 = experiment: CellTiter-Glo cell proliferation assay, SC1; format: cell-based; details: Homo sapiens, SC-1; SC1 (DLBCL), single agent, Table 2
Toledo = experiment: CellTiter-Glo cell proliferation assay, Toledo; format: cell-based; details: Homo sapiens; Toledo (DLBCL), single agent, Table 2
EJM = experiment: CellTiter-Glo cell proliferation assay, EJM; format: cell-based; details: Homo sapiens, read-out: EC50 (μM) GDC-0941 (single agent), Table 4
KSM-12-BM = experiment: CellTiter-Glo cell proliferation assay, KSM-12-BM; format: cell-based; details: Homo sapiens, read-out: EC50 (μM) GDC-0941 (single agent), Table 4
[1] = tested on: primary follicular lymphoma cells from patient NHL600; experiment: Cell-Titer Glo survival and proliferation assay, primary follicular lymphoma cells; format: cell-based, human; details: patient NHL600, FIG. 4, single agent
Excerpt: GDC-0464 (Genentech, Inc.) is a potent thienopyrimidine PI3K inhibitor (US 2008/0076758). LY294002 (Eli Lilly & Co., CAS Reg. No. 154447-36-6) is also a potent inhibitor of PI3 kinases (WO 2003/035099).

[2] = tested on: p-AKT and p-S6RP in DoHH2, WSU-DLCL2, OPM2, and U266 cells; experiment: FACS intracellular detection of p-Akt and p-S6 ribosomal protein; format: cell-based, human; details: 5 μM for 4 hrs, FIGS. 1a and 1b
Description: (§3) B cell lines (DoHH2 and WSU-DLCL2) and Myeloma cell lines (OPM2 and U266) were maintained in RPMI-1640/10% FBS in the presence of Pen/Strep and Glutamine.
Seed 10^7 cells of each cell line in 10 mL culture media in 10 cm Petri dish, 2 dishes for each cell line. • 2. […] Keep cells at 37° C., 5% CO2 incubator for 4 hours before harvesting. • 4. Transfer 1 mL of each condition (equivalent to 10^6 cells) to 5 mL FACS tube (BD) and spin at 1200 rpm for 5 min prior to fixation (harvest the other 9 mL culture-9×10^6 cells to 15 mL conical tube for Western). • 5. Aspirate the supernatant and fix the cells at room temperature with Fix/Perm Medium A (CAT #GAS001S-100) for 15 min. • 6. Wash the cells with PBS/2% FBS 1× • 7. Aspirate the supernatant and permeabilize the cells at room temperature with Fix/Perm Medium B (CAT #GAS002S-100) for 15 min. • 8. Wash the cells with PBS/2% FBS 1× • 9. Resuspend cells with 300 uL PBS/2% BSA and divide cells into 3 tubes 100 uL each (one for isotype-Rabbit IgG Alexa Fluor-647 and one for p-Akt Alexa Fluor-647 clone 193H12 and one for p-S6RP Alexa Fluor-647 clone D57.2.2E, all rabbit abs are from Cell Signaling). • 10. Add 50 ng of each Ab to corresponding tube and incubate at room temperature for 30 min. • 11. Wash the cells with PBS/2% FBS 1× • 12. Resuspend cells with 300 uL PBS/2% BSA and acquire data on FACSCalibur (BD) using CellQuest program. • 13. […]

[3] = tested on: p-AKT and p-S6RP in DoHH2, WSU-DLCL2, OPM2, and U266 cells; experiment: Western blotting for p-Akt, p-BAD and p-S6 ribosomal protein; format: cell-based, human; details: 5 μM for 4 hrs, FIG. 2
Description: Cells were treated as indicated and lysates analyzed by Western Blotting. Beta Actin blotting indicates approximately equal loading of lysates in each lane.
as §3
Protocol: • 1. Seed 10^7 cells of each cell line in 10 mL culture media in 10 cm Petri dish, 2 dishes for each cell line. • 2. […] Keep cells at 37° C., 5% CO2 incubator for 4 hours before harvesting. • 4. Harvest 9 mL culture (equivalent to 9×10^6 cells) to 15 mL conical tube and pellet and make cell lysates with 1×SDS sample buffer. Transfer the other 1 mL of each condition (equivalent to 1×10^6 cells) to 5 mL FACS tube (BD) for FACS. • 5. Wash cells once with cold PBS. • 6. Measure the OD of the protein samples and prepare the samples with NuPAGE electrophoresis system reagents to load 20 ug of each. • 7. Mix each protein sample for electrophoresis with appropriate amount of NuPAGE LDS sample buffer and Reducing Agent and apply 70° C. heat for 10 min. • 8. Load 10 uL of SeeBlue Plus2 Pre-stained standard and 20 ug of each sample into 4-12% NuPAGE Norvex Bis-Tris Gel and run with MES-SDS buffer in the presence of antioxidant (135 volts for 1 hour in the XCell SureLock Mini-Cell apparatus). • 9. Transfer gels to the blotting membrane using iBlot apparatus. • 10. […]

[4] = tested on: WSU-DLCL2 lymphoma tumor xenografts; experiment: In vivo tumor xenograft efficacy, WSU-DLCL2; set-up: species or system mice; details: for effect on tumor growth (mean tumor volume change): FIG. 18, 25 days, GDC-0941 60 mg/kg po, Formula Ib 1 mg/kg po, Rapamycin 6 mg/kg ip
Excerpt: (§1) Xenografts were initiated with cancer cells.
(§2) Animals were monitored for regression responses.

[5] = tested on: BJAB lymphoma tumor xenografts; experiment: In vivo tumor xenograft efficacy, BJAB; set-up: species or system mice
Excerpt: as §1, §2

[6] = tested on: multiple myeloma OPM-2 cell xenografts; experiment: In vivo tumor xenograft efficacy, OPM-2; set-up: species or system mice; details: FIG. 13, 24 days; GDC-0941 73 mg/kg po, bortezomib 0.5 mg/kg iv, lenalidomide 25 mg/kg ip, dexamethasone 3 mg/kg po
Excerpt: as §1, §2

[7] = tested on: primary diffuse large B-cell lymphoma (DLBCL) cells from patient NHL640-A055; details: patient NHL640-A055, FIG. 5
[8] = tested on: DoHH2 lymphoma tumor xenografts; experiment: In vivo tumor xenograft efficacy, DoHH2; details: FIG. 8, 34 days; GDC-0941 73 mg/kg po daily 21 days, rituximab 5 mg/kg iv qwk×3, CHOP
Excerpt: The efficacy of the combinations of the invention may be measured in vivo by implanting allografts or xenografts of cancer cells in rodents and treating the tumor-bearing animals with the combinations.
The animals were fed ad libitum water (reverse osmosis, 1 ppm Cl) and NIH 31 Modified and Irradiated Lab Diet® consisting of 18.0% crude protein, 5.0% crude fat, and 5.0% crude fiber. The mice were housed on irradiated ALPHA-Dri® Bed-O'Cobs® Laboratory Animal Bedding in static microisolators on a 12-hour light cycle at 21-22° C. (70-72° F.) and 40-60% humidity.
Xenografts were initiated with cancer cells. […] On the day of tumor implant, each test mouse received 1×10^7 cells (0.2 mL) implanted subcutaneously in the right flank, and tumor growth was monitored as the average size approached the target range of 100 to 150 mm3. […] Volume was calculated using the formula: Tumor Volume (mm^3)=(w^2×l)/2 […]
Tumors were measured twice each week using calipers. Mice were monitored individually, and each animal was euthanized when its tumor reached a volume of 1500 mm3 or at the end of the study on Day 40, whichever came first. […] The time to endpoint (TTE) for each mouse was calculated from the following equation: TTE (days)=[log10(endpoint volume,mm^3)−b]/m […]

Bjab = experiment: CellTiter-Glo cell proliferation assay, Bjab; details: Homo sapiens
Description: (§4) The homogeneous assay procedure involves adding the single reagent (CellTiter-Glo® Reagent) directly to cells cultured in serum-supplemented medium. Cell washing, removal of medium and multiple pipetting steps are not required. The system detects as few as 15 cells/well in a 384-well format in 10 minutes after adding reagent and mixing.
(§5) The individual measured EC50 values of the Formula I compounds and of the chemotherapeutic agent against the particular cell are compared to the combination EC50 value. […] A CI less than 0.8 indicates synergy. A CI between 0.8 and 1.2 indicates additivity. A CI greater than 1.2 indicates antagonism. The strength of synergy is assessed according to Chou and Talalay.
(§6) The CellTiter-Glo® Luminescent Cell Viability Assay, including reagents and protocol are commercially available (Promega Corp., Madison, Wis., Technical Bulletin TB288). The assay assesses the ability of compounds to enter cells and inhibit cell proliferation. The assay principle is based on the determination of the number of viable cells present by quantitating the ATP present in a homogenous assay where addition of the Cell-Titer Glo reagent results in cell lysis and generation of a luminescent signal through the luciferase reaction. […]
(§7) Day 5—Develop Plates, Thaw Cell Titer Glo Buffer at room temperature. […] Read luminescence on Analyst HT Plate Reader (half second per well). […]

OPM2 = experiment: CellTiter-Glo cell proliferation assay, OPM2
Description: as §4, §5, §6, §7

DoHH2 = experiment: CellTiter-Glo cell proliferation assay, DoHH2; details: for EC50: Homo sapiens
Description: (§8) The in vitro potency of the combinations of Formula I compounds with chemotherapeutic agents was measured by the cell proliferation assay of Example 15; the CellTiter-Glo® Luminescent Cell Viability Assay, commercially available from Promega Corp., Madison, Wis. […] The homogeneous assay procedure involves adding the single reagent (CellTiter-Glo® Reagent) directly to cells cultured in serum-supplemented medium. Cell washing, removal of medium and multiple pipetting steps are not required. The system detects as few as 15 cells/well in a 384-well format in 10 minutes after adding reagent and mixing.
The individual measured EC50 values of the Formula I compounds and of the chemotherapeutic agent against the particular cell are compared to the combination EC50 value. The combination index (CI) score is calculated by the Chou and Talalay method (Chou, T. and Talalay, P. (1984) Adv. Enzyme Regul. 22:27-55). A CI less than 0.8 indicates synergy. A CI between 0.8 and 1.2 indicates additivity. A CI greater than 1.2 indicates antagonism. The strength of synergy is assessed according to Chou and Talalay.
The assay assesses the ability of compounds to enter cells and inhibit cell proliferation. The assay principle is based on the determination of the number of viable cells present by quantitating the ATP present in a homogenous assay where addition of the Cell-Titer Glo reagent results in cell lysis and generation of a luminescent signal through the luciferase reaction. The luminescent signal is proportional to the amount of ATP present.
Procedure: Day 1—Seed Cell Plates (384-well black, clear bottom, microclear, TC plates with lid from Falcon #353962), Harvest cells, Seed cells at 1000 cells per 54 μl per well into 384 well Cell Plates for 3 days assay. Cell Culture Medium: RPMI or DMEM high glucose, 10% Fetal Bovine Serum, 2 mM L-Glutamine, P/S. Incubate O/N at 37 C, 5% CO2.
Day 2—Add Drug to Cells, Compound Dilution, DMSO Plates (serial 1:2 for 9 points), Add 20 ul compounds at 10 mM in the 2nd column of 96 well plate. […]

MM1.S = experiment: CellTiter-Glo cell proliferation assay, MM1.S; details: Homo sapiens, read-out: EC50 (μM) GDC-0941 (single agent)
Description: as §8
(§9) The individual measured EC50 values of the Formula I compounds and of the chemotherapeutic agent against the particular cell are compared to the combination EC50 value. The combination index (CI) score is calculated by the Chou and Talalay method (Chou, T. and Talalay, P. (1984) Adv. Enzyme Regul. 22:27-55). A CI less than 0.8 indicates synergy. […] The strength of synergy is assessed according to Chou and Talalay.
(§10) The assay assesses the ability of compounds to enter cells and inhibit cell proliferation. The assay principle is based on the determination of the number of viable cells present by quantitating the ATP present in a homogenous assay where addition of the Cell-Titer Glo reagent results in cell lysis and generation of a luminescent signal through the luciferase reaction. […]

MOLP-8 = experiment: CellTiter-Glo cell proliferation assay, MOLP-8; details: Homo sapiens, MOLP-8, read-out: EC50 (μM) GDC-0941 (single agent)
Description: as §8, §9, §10

NCI-H929 = experiment: CellTiter-Glo cell proliferation assay, NCI-H929; details: Homo sapiens, NCI-H929, read-out: EC50 (μM) GDC-0941 (single agent)
Description: as §8, §9, §10

WSU-DLCL2 = experiment: CellTiter-Glo cell proliferation assay, WSU-DLCL2; details: Homo sapiens
Description: as §8, §9, §10

RPMI-8226 = experiment: CellTiter-Glo cell proliferation assay, RPMI-8226; details: Homo sapiens, RPMI-8226, read-out: EC50 (μM) GDC-0941 (single agent)
Description: as §8, §9, §10

[9] = tested on: NCI-H929 multiple myeloma xenografts; experiment: In vivo tumor xenograft efficacy, NCI-H929; set-up: species or system mice; details: for antitumor activity (mean tumor volume change): lenalidomide 25 mg/kg ip
Excerpt: as §1, §2

[10] = FIG. 16, 33 days, GDC-0941 75 mg/kg po, bortezomib 0.5 mg/kg iv, dexamethasone 3 mg/kg po

For CS(=O)(=O)N1CCN(Cc2cc3nc(-c4cccc5[nH]ncc45)nc(N4CCOCC4)c3s2)CC1 [GDC-0941, 4-(2-(1H-indazol-4-yl)-6-((4-(methylsulfonyl)piperazin-1-yl)methyl)thieno[3,2-d]pyrimidin-4-yl)morpholine], the EC50 (SUDHL6) was 10 nM, the EC50 (RI1) was 40 nM and the EC50 (SUDHL5) was 80 nM. For the same molecule, the EC50 (MC116) was 160 nM, the EC50 (WSUNHL) was 160 nM and the EC50 (Rec1) was 160 nM. For the same molecule, the EC50 (Granta519) was 210 nM, the EC50 (Farage) was 240 nM and the EC50 (OciLy19) was 320 nM. The EC50 (Jeko1) was 320 nM, the EC50 (SUDHL4) was 1350 nM and the EC50 (HT) was 2840 nM. The EC50 (DB) was ≥ 10000 nM, the EC50 (Ramos) was ≥ 10000 nM and the EC50 (SC1) was ≥ 10000 nM. For the same molecule, the EC50 (Toledo) was ≥ 10000 nM, the EC50 (EJM) was 1.5 µM and the EC50 (KSM-12-BM) was > 5 µM. The “potency against primary cancer cells (viable cells)” value [1] was “surprising and unexpected degree of potency”, the “p-AKT signal (flow cytometry)” value [2] was “abolished p-AKT signal” and the “p-S6RP signal (flow cytometry)” value [2] was “reduced or abolished p-S6RP signal”. For the same molecule, the “p-AKT signal (western blotting)” value [3] was “significantly reduced (where present)”, the “p-S6RP signal (western blotting)” value [3] was “significantly reduced (where present)” and the “antitumor activity (mean tumor volume change)” value ([4]; FIG. 7, 20 days, GDC-0941 73 mg/kg po daily 21 days, rituximab 5 mg/kg days 0, 7, 14, CHOP from day 0) was “only modest activity”. The “effect on tumor growth (mean tumor volume change)” value [4] was “little effect on tumor growth”, the “antitumor activity (mean tumor volume change)” value ([5]; FIG. 10, 25 days, GDC-0941 73 mg/kg po daily 21 days, CHOP from day 0) was “only modest activity” and the “antitumor activity (mean tumor volume change)” value ([5]; FIG. 11, 25 days, GDC-0941 75 mg/kg po qd×21, rituximab 5 mg/kg days 0, 7, 14) was “only modest activity”. The “antitumor activity (mean tumor volume change)” value [6] was “indistinguishable and moderate tumor activity”, the “cell viability, relative potency” value [7] was “significantly more potent than doxorubicin” and the “antitumor activity (mean tumor volume change)” value [8] was “significantly different than vehicle”. It also gave an EC50 (Bjab) of 0.33 µM, an EC50 (Bjab; read-out: EC50 (μM) GDC-0941 (single agent)) of 0.33 µM and an EC50 (OPM2; Homo sapiens, OPM-2, read-out: EC50 (μM) GDC-0941 (single agent)) of 1.23 µM. For the same molecule, the EC50 (DoHH2; DOHH-2) was 0.26 µM, the EC50 (DoHH2; DOHH-2, read-out: EC50 (μM) GDC-0941 (single agent)) was 0.16 µM and the EC50 (MM1.S) was 0.22 µM. For the same molecule, the EC50 (MOLP-8) was 0.06 µM, the EC50 (NCI-H929) was 0.43 µM and the EC50 (WSU-DLCL2; WSUDLCL2) was 0.13 µM. The EC50 (WSU-DLCL2; WSUDLCL2, read-out: EC50 (μM) GDC-0941 (single agent)) was 0.17 µM and the EC50 (RPMI-8226) was 2.53 µM.
With Nc1cccc2c1CN(C1CCC(=O)NC1=O)C2=O (stereo not shown) [lenalidomide, 3-(4-amino-1-oxoisoindolin-2-yl)piperidine-2,6-dione] the “antitumor activity (mean tumor volume change)” value [9, 10] was “modest activity” and the “antitumor activity (mean tumor volume change)” value [6] was “indistinguishable and moderate tumor activity”.
Cc1c(CN2CCN(C(=O)[C@H](C)O)CC2)sc2c(N3CCOCC3)nc(-c3cnc(N)nc3)nc12 [Formula Ib, (S)-1-(4-((2-(2-aminopyrimidin-5-yl)-7-methyl-4-morpholinothieno[3,2-d]pyrimidin-6-yl)methyl)piperazin-1-yl)-2-hydroxypropan-1-one] was tested, and the “effect on tumor growth (mean tumor volume change)” value [4] was “little effect on tumor growth”.
CC(C)C[C@H](NC(=O)[C@H](Cc1ccccc1)NC(=O)c1cnccn1)B(O)O [bortezomib, [(1R)-3-methyl-1-({(2S)-3-phenyl-2-[(pyrazin-2-ylcarbonyl)amino]propanoyl}amino)butyl]boronic acid] was tested, and the “antitumor activity (mean tumor volume change)” value ([9]; FIG. 12, 22 days, single agents, GDC-0941 73 mg/kg po, bortezomib 1 mg/kg iv, dexamethasone 10 mg/kg po) was “exceeded by the efficacy of bortezomib”, the partial responses ([9]; FIG. 12, cohorts of 10 mice) was 3 and the “antitumor activity (mean tumor volume change)” value [9, 10] was “modest activity”. For the same molecule, the “antitumor activity (mean tumor volume change)” value [6] was “sub-clinical response which was not different than that of vehicle”.
C[C@@H]1C[C@H]2[C@@H]3CCC4=CC(=O)C=C[C@]4(C)[C@@]3(F)[C@@H](O)C[C@]2(C)[C@@]1(O)C(=O)CO [dexamethasone, (8S,9R,10S,11S,13S,14S,16R,17R)-9-fluoro-11,17-dihydroxy-17-(2-hydroxyacetyl)-10,13,16-trimethyl-6,7,8,11,12,14,15,16-octahydrocyclopenta[a]phenanthren-3-one, reference compound] was tested, and the “antitumor activity (mean tumor volume change)” value [9, 10] was “modest activity”, the “antitumor activity (mean tumor volume change)” value [6] was “indistinguishable and moderate tumor activity” and the “response in cell proliferation assay” value (OPM2; multiple myeloma OPM2 cells, FIG. 6, single agent) was “relatively weak response”. The “single agent activity on viable cells (dose-response)” value (DoHH2; B-NHL cell line DoHH2, FIG. 3) was “relatively impotent activity”.
